Measured values: ChEMBL document CHEMBL3997794, “Design and synthesis of benzodiazepine analogs as isoform-selective human lysine deacetylase inhibitors” (Eur J Med Chem, 2017)

Key:
[1] = molecular target: T1, Protein deacetylase HDAC6 (Homo sapiens) (UniProt Q9UBN7); conditions: at 30 µM
T1 sequence (whole entry): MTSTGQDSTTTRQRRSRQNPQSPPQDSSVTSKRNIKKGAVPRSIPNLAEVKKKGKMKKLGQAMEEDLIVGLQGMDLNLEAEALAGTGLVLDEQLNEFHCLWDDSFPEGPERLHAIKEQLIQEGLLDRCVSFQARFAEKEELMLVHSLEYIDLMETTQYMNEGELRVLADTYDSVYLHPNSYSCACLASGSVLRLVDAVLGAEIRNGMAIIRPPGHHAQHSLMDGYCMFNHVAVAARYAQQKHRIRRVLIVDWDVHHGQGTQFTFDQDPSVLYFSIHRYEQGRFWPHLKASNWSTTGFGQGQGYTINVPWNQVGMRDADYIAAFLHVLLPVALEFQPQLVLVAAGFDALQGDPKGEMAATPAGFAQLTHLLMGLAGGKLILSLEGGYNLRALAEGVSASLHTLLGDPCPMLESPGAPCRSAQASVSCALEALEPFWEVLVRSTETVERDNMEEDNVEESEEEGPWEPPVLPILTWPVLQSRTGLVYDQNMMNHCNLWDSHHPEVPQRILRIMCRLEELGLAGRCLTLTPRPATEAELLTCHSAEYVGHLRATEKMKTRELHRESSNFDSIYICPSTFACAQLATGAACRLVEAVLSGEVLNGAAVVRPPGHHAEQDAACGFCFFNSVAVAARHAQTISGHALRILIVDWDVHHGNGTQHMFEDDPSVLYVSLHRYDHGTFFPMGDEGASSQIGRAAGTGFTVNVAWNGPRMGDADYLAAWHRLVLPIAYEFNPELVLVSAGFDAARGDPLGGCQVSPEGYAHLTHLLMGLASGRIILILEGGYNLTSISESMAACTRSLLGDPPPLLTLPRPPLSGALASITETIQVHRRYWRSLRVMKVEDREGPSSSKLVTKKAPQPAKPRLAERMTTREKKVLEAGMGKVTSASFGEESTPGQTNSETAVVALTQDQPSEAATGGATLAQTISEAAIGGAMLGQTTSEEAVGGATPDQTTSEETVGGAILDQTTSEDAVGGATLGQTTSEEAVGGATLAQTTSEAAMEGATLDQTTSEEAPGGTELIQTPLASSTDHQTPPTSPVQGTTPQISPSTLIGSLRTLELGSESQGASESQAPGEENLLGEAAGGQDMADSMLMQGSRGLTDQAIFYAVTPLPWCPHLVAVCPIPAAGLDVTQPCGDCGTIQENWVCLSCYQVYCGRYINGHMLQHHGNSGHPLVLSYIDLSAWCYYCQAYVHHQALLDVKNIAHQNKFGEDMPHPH
Description: Inhibition of human KDAC6 at 30 uM using FITC-labeled histone H4 acetylated peptide as substrate after 60 mins by fluorescence assay relative to control

Histone deacetylase 1 [2] = molecular target: T2, Histone deacetylase 1 (Homo sapiens, UniProt Q13547); test: Inhibition of human KDAC1 at 30 uM using substrate A after 60 mins by fluorescence assay relative to control
[3] = molecular target: T3, Histone deacetylase 8 (Homo sapiens) (UniProt Q9BY41); test: Inhibition of human KDAC8 at 30 uM after 60 mins by fluorescence assay relative to control
T3 sequence (whole entry): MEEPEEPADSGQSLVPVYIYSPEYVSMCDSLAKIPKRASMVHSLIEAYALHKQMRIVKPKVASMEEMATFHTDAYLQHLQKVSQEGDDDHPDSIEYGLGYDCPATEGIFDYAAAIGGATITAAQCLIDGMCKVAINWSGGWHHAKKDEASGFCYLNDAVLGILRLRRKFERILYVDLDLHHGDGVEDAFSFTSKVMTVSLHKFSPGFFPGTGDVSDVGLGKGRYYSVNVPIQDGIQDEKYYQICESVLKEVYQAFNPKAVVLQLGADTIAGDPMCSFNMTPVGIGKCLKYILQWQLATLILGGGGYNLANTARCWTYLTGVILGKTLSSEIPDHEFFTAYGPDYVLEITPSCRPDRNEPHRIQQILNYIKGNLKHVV

Histone deacetylase 3 [4] = molecular target: T4, Histone deacetylase 3 (Homo sapiens, UniProt O15379); test: Inhibition of human KDAC3 at 30 uM using FITC-labeled p53 acetylated peptide as substrate after 60 mins by fluorescence assay relative to control
Histone deacetylase 1 [5] = molecular target: T2, Histone deacetylase 1; test: Inhibition of human KDAC1 using substrate A after 60 mins by fluorescence assay
Histone deacetylase 8 = molecular target: T5, Histone deacetylase 8 (Homo sapiens, UniProt Q9BY41); test: Inhibition of human KDAC8 after 60 mins by fluorescence assay
T5 sequence (Q9BY41 whole entry): T3 sequence (whole entry)

[6] = molecular target: T6, Protein deacetylase HDAC6 (Homo sapiens, UniProt Q9UBN7); test: Inhibition of human KDAC6 using FITC-labeled histone H4 acetylated peptide as substrate after 60 mins by fluorescence assay
T6 sequence (Q9UBN7 whole entry): T1 sequence (whole entry)

Histone deacetylase 3 [7] = molecular target: T4, Histone deacetylase 3; test: Inhibition of human KDAC3 using FITC-labeled p53 acetylated peptide as substrate after 60 mins by fluorescence assay

T2 sequence (Q13547 whole entry): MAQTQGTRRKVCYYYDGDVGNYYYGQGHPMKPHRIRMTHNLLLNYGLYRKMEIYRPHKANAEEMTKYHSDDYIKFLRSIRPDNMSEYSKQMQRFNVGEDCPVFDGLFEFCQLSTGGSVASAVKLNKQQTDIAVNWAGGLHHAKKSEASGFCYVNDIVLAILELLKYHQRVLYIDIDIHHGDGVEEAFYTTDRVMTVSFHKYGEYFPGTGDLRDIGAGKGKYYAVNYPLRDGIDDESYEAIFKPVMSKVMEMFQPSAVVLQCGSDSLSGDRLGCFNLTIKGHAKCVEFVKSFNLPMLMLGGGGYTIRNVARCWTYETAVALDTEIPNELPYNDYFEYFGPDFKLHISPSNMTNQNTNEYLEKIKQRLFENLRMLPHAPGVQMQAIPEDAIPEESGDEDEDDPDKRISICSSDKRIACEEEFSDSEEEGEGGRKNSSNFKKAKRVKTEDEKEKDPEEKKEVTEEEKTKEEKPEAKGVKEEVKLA
T4 sequence (O15379 whole entry): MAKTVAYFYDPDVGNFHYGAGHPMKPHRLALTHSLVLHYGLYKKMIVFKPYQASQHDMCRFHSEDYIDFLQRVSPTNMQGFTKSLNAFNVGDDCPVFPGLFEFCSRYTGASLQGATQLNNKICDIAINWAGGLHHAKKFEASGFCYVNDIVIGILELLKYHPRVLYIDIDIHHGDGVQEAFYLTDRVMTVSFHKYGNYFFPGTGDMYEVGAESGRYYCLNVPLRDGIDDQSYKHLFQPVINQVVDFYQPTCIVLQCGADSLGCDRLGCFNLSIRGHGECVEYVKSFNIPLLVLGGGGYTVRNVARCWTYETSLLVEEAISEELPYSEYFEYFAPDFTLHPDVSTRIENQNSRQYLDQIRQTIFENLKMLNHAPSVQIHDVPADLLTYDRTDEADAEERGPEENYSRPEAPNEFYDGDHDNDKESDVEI

SMILES | inhibition [1] [%] | inhibition (Histone deacetylase 1 [2]) [%] | inhibition [3] [%] | inhibition (Histone deacetylase 3 [4]) [%] | IC50 (Histone deacetylase 1 [5]) [µM] | IC50 (Histone deacetylase 8) [µM] | IC50 [6] [µM] | IC50 (Histone deacetylase 3 [7]) [µM]
NCCCC[C@@H]1N=C(c2ccccc2)c2ccccc2N(CCCCC(=O)NO)C1=O | 73.4 | 79.5 | 7.7 | 99.1 | 6.54 | > 30 | 12.1 | 0.95
COC(=O)CCCCN1C(=O)CN=C(c2ccccc2)c2ccccc21 | 0 | 0.19 | 2.83 | 0 | > 30 | > 30 | > 30 | > 30
CC(C)(C)OC(=O)NCCCC[C@@H]1N=C(c2ccccc2)c2ccccc2N(CCCCC(=O)O)C1=O | 0 | 6 | -2.29 | 0 | > 30 | > 30 | > 30 | > 30
CC(C)(C)OC(=O)C[C@H]1N=C(c2ccccc2)c2ccccc2NC1=O | 0 | 0.37 | 0 | 0 | > 30 | > 30 | > 30 | > 30
COC(=O)CCCCN1C(=O)[C@H](CC(=O)OC(C)(C)C)N=C(c2ccccc2)c2ccccc21 | 0 | 3.65 | 0 | 0 | > 30 | > 30 | > 30 | > 30
C[C@@H]1N=C(c2ccccc2)c2ccccc2N(CCCCC(=O)O)C1=O | 0.27 | 11.3 | 8.87 | 0 | > 30 | > 30 | > 30 | > 30
COC(=O)CCCCN1C(=O)[C@H](CC(C)C)N=C(c2ccccc2)c2ccccc21 | 0 | 8.85 | 7.63 | 0 | > 30 | > 30 | > 30 | > 30
CC(C)(C)SC[C@H]1N=C(c2ccccc2)c2ccccc2NC1=O | 2.05 | 4.1 | 16.1 | 2.88 | > 30 | > 30 | > 30 | > 30
O=C(CCCCN1C(=O)[C@H](CC(=O)NO)N=C(c2ccccc2)c2ccccc21)NO | 42.5 | 74.7 | 10 | 77.7 | 9.99 | > 30 | > 30 | 10.4
CC(C)(C)OC[C@@H]1N=C(c2ccccc2)c2ccccc2NC1=O | 2.44 | 1.48 | 0 | 0.38 | > 30 | > 30 | > 30 | > 30
O=C(CCCCN1C(=O)[C@H](Cc2cncn2C(c2ccccc2)(c2ccccc2)c2ccccc2)N=C(c2ccccc2)c2ccccc21)NO | 89.9 | 22.3 | 1.38 | 93.4 | > 30 | > 30 | 4.74 | 2.55
O=C(CCCCN1C(=O)CN=C(c2ccccc2)c2ccccc21)NO | 94.2 | 88.3 | 75.9 | 97.2 | 3.84 | 6.72 | 1.89 | 0.66
COC(=O)CCCCN1C(=O)[C@@H](CSC(C)(C)C)N=C(c2ccccc2)c2ccccc21 | 0 | 3.94 | 0 | 0 | > 30 | > 30 | > 30 | > 30
COC(=O)CCCCN1C(=O)[C@H](CCSC)N=C(c2ccccc2)c2ccccc21 | 0 | 0 | 0 | 0 | > 30 | > 30 | > 30 | > 30
COC(=O)CCCCN1C(=O)[C@H](Cc2ccc(OC(C)(C)C)cc2)N=C(c2ccccc2)c2ccccc21 | 0 | 8.72 | 0 | 0.98 | > 30 | > 30 | > 30 | > 30
O=C(CC[C@H]1N=C(c2ccccc2)c2ccccc2NC1=O)NO | 19 | 28 | 9.02 | 29.4 | > 30 | > 30 | > 30 | > 30
O=C(CCCCN1C(=O)[C@@H](CS)N=C(c2ccccc2)c2ccccc21)NO | 96.9 | 97.3 | 81.2 | 100 | 0.46 | 8.11 | 0.58 | 0.18
NC(=O)C[C@@H]1N=C(c2ccccc2)c2ccccc2N(CCCCC(=O)NO)C1=O | 82.2 | 57.6 | 26.2 | 90.9 | 22.5 | > 30 | 5.38 | 3.1
CC(C)[C@@H]1N=C(c2ccccc2)c2ccccc2NC1=O | 3.25 | 0 | 0 | 0 | > 30 | > 30 | > 30 | > 30
CC(C)(C)OC(=O)CC[C@@H]1N=C(c2ccccc2)c2ccccc2NC1=O | 0.01 | 5.85 | 1.79 | 0 | > 30 | > 30 | > 30 | > 30
O=C(CCCNC(=O)CC[C@@H]1N=C(c2ccccc2)c2ccccc2NC1=O)NO | 83.5 | 55.8 | 33.6 | 87.2 | 22.9 | > 30 | 7.16 | 5.17
O=C(CCCCN1C(=O)[C@H](Cc2ccccc2)N=C(c2ccccc2)c2ccccc21)NO | 95.1 | 75 | 68.6 | 97 | 8.51 | 12.7 | 1.98 | 0.49
CSCC[C@@H]1N=C(c2ccccc2)c2ccccc2N(CCCCC(=O)O)C1=O | 0 | 4.46 | 2.75 | 0 | > 30 | > 30 | > 30 | > 30
Cc1c(C)c(S(=O)(=O)NC(=N)NCCC[C@@H]2N=C(c3ccccc3)c3ccccc3N(CCCCC(=O)NO)C2=O)c(C)c2c1OC(C)(C)C2 | 70.2 | 39.1 | 22.6 | 94.6 | > 30 | > 30 | 16.2 | 4.29
CC[C@H](C)[C@@H]1N=C(c2ccccc2)c2ccccc2N(CCCCC(=O)OC)C1=O | 0 | 2.83 | 2.38 | 0 | > 30 | > 30 | > 30 | > 30
